Where two headings read alike, the source gives them in different places.
How the values were obtained:
PAD1 = target: T1, PAD1 (Homo sapiens, UniProt Q9ULC6); assay: Inactivation kinetics of PAD1 (COLDER citrulline assay); format: biochemical; settings: for kinact / Ki / kinact/KI: PAD1; for Ki: concentration of inhibitor that affords half-maximal inactivation; for kinact/KI: marks: * nonlinear fit of kobs versus [I], ‡ linear fit, † single kobs; for Fold PAD selectivity: PAD1 over the other PADs, bracketed value under kinact/KI
T1 construct: made in house
T1 sequence (Q9ULC6 1-663): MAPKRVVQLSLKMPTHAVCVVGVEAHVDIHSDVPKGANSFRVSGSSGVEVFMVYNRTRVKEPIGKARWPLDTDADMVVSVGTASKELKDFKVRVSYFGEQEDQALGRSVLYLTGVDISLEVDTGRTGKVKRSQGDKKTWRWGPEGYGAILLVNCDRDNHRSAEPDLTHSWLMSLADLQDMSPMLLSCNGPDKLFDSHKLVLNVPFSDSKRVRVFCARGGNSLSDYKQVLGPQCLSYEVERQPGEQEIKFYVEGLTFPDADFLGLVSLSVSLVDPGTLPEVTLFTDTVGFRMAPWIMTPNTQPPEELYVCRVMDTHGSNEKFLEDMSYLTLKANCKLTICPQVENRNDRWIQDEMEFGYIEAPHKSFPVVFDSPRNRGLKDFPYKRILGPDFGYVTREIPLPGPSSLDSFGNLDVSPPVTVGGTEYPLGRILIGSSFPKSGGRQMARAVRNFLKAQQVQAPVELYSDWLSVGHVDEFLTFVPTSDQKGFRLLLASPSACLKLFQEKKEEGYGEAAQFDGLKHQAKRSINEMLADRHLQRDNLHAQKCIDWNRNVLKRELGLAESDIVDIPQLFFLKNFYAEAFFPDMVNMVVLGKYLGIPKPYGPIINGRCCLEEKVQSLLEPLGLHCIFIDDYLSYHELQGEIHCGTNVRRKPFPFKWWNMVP
Procedure: (§1) Inactivation kinetics. […] After 15 min, reactions were quenched with liquid nitrogen and the production of citrulline was quantified using the COLDER assay. (Kearney, et al. Biochemistry 2005, 44, 10570-10582; Knipp, et al. Anal. Biochem. 2000, 286, 257-264.) The time-dependence of PAD inhibition was fit to the following equation 1, […] (1), using Grafit, version 5.0.11, where v is velocity, ν0 is initial velocity, k (or kobs is the pseudo-first-order rate constant of inactivation, and t is time. Upon reaching saturation, the concentration dependence of kobs was fit to equation 2, kobs=kinact[I]/(KI+[I]), (2), using Grafit, version 5.0.11, where kinact is the maximal rate of inactivation, KI is the concentration of inhibitor that affords half-maximal inactivation, and [I] is the concentration of inhibitor. When kobs with [I] varied linearly, kinact/KI was determined from the slope of the line. All the experiments were performed at least in duplicate.

PAD2 = target: T2, PAD2 (Homo sapiens, UniProt Q9Y2J8); assay: Inactivation kinetics of PAD2 (COLDER citrulline assay); format: biochemical; settings: for Fold PAD selectivity: bracketed value under kinact/KI; for kinact/KI: marks: * nonlinear fit of kobs versus [I], ‡ linear fit, † single kobs
T2 construct: made in house
T2 sequence (Q9Y2J8 whole entry): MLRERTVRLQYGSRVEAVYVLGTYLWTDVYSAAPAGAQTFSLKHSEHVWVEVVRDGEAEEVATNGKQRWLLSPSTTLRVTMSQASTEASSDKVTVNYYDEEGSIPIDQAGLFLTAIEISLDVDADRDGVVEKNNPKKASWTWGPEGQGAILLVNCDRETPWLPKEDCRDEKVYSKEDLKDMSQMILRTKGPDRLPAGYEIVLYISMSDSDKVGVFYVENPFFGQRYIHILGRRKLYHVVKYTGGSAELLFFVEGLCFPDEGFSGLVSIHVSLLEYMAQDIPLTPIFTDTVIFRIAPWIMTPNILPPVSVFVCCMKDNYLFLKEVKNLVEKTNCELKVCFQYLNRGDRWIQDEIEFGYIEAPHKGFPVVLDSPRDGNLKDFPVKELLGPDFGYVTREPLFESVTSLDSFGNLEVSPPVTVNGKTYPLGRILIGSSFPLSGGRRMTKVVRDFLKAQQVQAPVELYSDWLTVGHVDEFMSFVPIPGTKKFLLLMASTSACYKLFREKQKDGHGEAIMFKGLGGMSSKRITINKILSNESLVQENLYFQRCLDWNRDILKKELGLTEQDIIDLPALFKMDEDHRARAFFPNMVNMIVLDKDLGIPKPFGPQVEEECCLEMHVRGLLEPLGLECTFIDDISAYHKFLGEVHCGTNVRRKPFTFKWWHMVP
Procedure: as §1

PAD3 = target: T3, PAD3 (Homo sapiens, UniProt Q9ULW8); assay: Inactivation kinetics of PAD3 (COLDER citrulline assay); format: biochemical; settings: for Fold PAD selectivity: bracketed value under kinact/KI; for kinact/KI: marks: * nonlinear fit of kobs versus [I], ‡ linear fit, † single kobs
T3 construct: made in house
T3 sequence (Q9ULW8 1-664): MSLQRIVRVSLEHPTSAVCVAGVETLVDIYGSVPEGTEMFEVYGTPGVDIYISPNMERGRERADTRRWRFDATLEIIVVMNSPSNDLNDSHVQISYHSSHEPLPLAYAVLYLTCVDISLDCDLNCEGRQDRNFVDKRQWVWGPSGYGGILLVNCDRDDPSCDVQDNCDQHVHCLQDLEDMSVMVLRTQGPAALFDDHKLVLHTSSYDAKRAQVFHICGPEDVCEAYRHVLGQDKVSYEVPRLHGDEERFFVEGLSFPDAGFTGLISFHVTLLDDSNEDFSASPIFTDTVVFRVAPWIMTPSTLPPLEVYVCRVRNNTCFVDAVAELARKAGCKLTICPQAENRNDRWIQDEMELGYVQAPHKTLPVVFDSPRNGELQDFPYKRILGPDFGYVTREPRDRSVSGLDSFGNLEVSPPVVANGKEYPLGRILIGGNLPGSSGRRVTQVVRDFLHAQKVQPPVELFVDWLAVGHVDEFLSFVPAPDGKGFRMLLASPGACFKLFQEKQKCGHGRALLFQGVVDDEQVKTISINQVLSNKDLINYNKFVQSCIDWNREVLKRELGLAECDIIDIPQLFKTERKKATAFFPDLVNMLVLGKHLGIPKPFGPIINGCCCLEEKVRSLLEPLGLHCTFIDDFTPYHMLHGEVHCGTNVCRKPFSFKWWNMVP
Procedure: as §1

PAD4 = target: T4, PAD4 (Homo sapiens, UniProt Q9UM07); assay: Inactivation kinetics of PAD4 (COLDER citrulline assay); format: biochemical; settings: for Fold PAD selectivity: bracketed value under kinact/KI; for kinact/KI: marks: * nonlinear fit of kobs versus [I], ‡ linear fit, † single kobs
T4 construct: made in house
T4 sequence (Q9UM07 whole entry): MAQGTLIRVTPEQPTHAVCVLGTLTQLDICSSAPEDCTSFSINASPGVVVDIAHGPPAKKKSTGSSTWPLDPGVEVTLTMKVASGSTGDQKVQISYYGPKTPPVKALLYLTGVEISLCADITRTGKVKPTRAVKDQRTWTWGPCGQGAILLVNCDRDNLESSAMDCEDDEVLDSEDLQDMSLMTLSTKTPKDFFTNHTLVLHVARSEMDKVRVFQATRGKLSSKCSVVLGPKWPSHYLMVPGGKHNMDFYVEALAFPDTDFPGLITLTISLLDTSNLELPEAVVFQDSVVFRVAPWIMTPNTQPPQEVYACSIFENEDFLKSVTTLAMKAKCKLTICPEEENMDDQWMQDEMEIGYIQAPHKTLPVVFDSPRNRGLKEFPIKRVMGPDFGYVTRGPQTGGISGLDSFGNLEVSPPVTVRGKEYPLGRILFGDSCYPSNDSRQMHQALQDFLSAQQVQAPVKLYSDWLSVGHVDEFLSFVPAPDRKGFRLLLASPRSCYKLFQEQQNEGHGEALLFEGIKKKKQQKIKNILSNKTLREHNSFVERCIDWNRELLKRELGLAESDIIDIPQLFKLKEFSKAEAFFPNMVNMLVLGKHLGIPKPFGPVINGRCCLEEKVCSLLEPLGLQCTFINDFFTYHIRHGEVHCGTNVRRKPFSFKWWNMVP
Procedure: as §1

pronuclear mouse zygotes = assay: Early embryo development of pronuclear mouse zygotes; format: cell-based; settings: 100 μM inhibitor, 100 h of culture, 87% of control zygotes reached blastocyst stage
Procedure: In Vitro Fertilization. Female ICR mice (4-6 weeks) were injected intraperitoneally with 10 international units (IU) of pregnant mare serum gonadotropin (PMSG) and after 46 h, 10 IU of human chorionicgonadotropin (hCG). After 16 h, cumulus masses were released from oviducts into HEPES-buffered HTF culture medium (HTF) (InVitro Care, Frederick, MD). Cauda epididymal mouse spermatozoa were released and placed in drops of HTF culture medium (InVitro Care). Then the sperm suspensions were added to the cumulus mass drops with a final concentration of approximately 1-3×10^5/mL. Zygotes were collected and transferred to KSOM medium containing 100 μM PAD1 inhibitor or equal volume of DMSO as a control. Then 4-cell and blastocyst stage embryos were collected after 48 and 100 h of culture, respectively.

[1] = read-out: kinact/KI (converted)

| Compound | kinact (PAD1) | Ki (PAD1) | kinact/KI (PAD1) | Fold PAD selectivity (PAD2) | kinact/KI (PAD2) | Fold PAD selectivity (PAD3) | kinact/KI (PAD3) | Fold PAD selectivity (PAD4) | kinact/KI (PAD4) | kinact/KI (PAD1; [1]) | kinact (PAD1; read-out: kinact (converted)) | Fold PAD selectivity (PAD1) | kinact/KI (PAD2; [1]) | kinact/KI (PAD3; [1]) | kinact/KI (PAD4; [1]) | Effect on early embryo development (pronuclear mouse zygotes) |
| --- | --- | --- | --- | --- | --- | --- | --- | --- | --- | --- | --- | --- | --- | --- | --- | --- |
| C#Cc1c(I)cc(C(=O)N[C@@H](CCCNC(=N)CF)c2nc3ccccc3[nH]2)c(O)c1I [Compound 21] | 0.00517 s⁻¹ | 69.2 µM | 4480 ± 200* M^−1min^−1 | [1] fold | 130 ± 30^† M^−1min^−1 | [2] fold | 310 ± 80^† M^−1min^−1 | [2] fold | 220 ± 30^† M^−1min^−1 |  |  |  |  |  |  |  |
| N=C(CF)NCCC[C@H](NC(=O)c1cc(I)cc(I)c1O)c1nc2ccccc2[nH]1 [Compound 1] |  | 12.5 µM |  | [1] fold |  | [1] fold |  | [2] fold |  | 173 M⁻¹ s⁻¹ | 0.00217 s⁻¹ | 74 fold | 2.33 M⁻¹ s⁻¹ | 3.33 M⁻¹ s⁻¹ | 4.5 M⁻¹ s⁻¹ | dramatic arrest of embryo development at the morula stage |
| N=C(CF)NCCC[C@H](NC(=O)c1cc(I)c(F)c(I)c1O)c1nc2ccccc2[nH]1 [Compound 19] |  | 30.2 µM |  | [1] fold |  | [2] fold |  | [1] fold |  | 221 M⁻¹ s⁻¹ | 0.00667 s⁻¹ | 44 fold | 5 M⁻¹ s⁻¹ | 11.7 M⁻¹ s⁻¹ | 5 M⁻¹ s⁻¹ | dramatic arrest of embryo development at the morula stage |

— patent US12448358B2, “Inhibitors of protein arginine deiminase 1 and methods of preparation and use thereof” (University of Massachusetts, priority 2019, dated 2025)
